The target in assay [1] is DNA topoisomerase 2-alpha (Homo sapiens) (UniProt P11388). In words: Inhibition of human recombinant topoisomerase 2alpha-mediated relaxation of supercoiled pBR322 DNA after 60 mins by agarose gel electrophoresis.
In assay [2] the test system is Nucleic Acid. In words: Stabilization of supercoiled pBR322 DNA-human recombinant topoisomerase 2 complex assessed as linear DNA formation at 8 uM after 60 mins. In kind it is nucleic-acid assay. The conditions noted are these: Escherichia coli.
For assay [3], the system named is Nucleic Acid. The experiment in a line: Stabilization of supercoiled pBR322 DNA-human recombinant topoisomerase 2 complex assessed as linear DNA formation at 5 to 50 uM after 60 mins. The conditions noted are these: Escherichia coli. In kind it is nucleic-acid assay.
In assay [4] the test system is HeLa. In words: Cytotoxicity against human HeLa cells after 24 hrs by trypan blue assay in presence of 0.789 J cm-2 of UVA light. Format: functional, cell-based. The conditions noted are these: light or radiation study.
The subject of assay [5] is HeLa. The experiment in a line: Cytotoxicity against human HeLa cells treated under dark condition after 24 hrs by trypan blue assay. Format: functional, cell-based.
In assay [6] the test system is HL-60. In words: Cytotoxicity against human HL60 cells after 24 hrs by trypan blue assay in presence of 0.789 J cm-2 of UVA light. In kind it is functional, cell-based. The following applies: HL-60, light or radiation study.
For assay [7], the system named is HL-60. The experiment in a line: Cytotoxicity against human HL60 cells treated under dark condition after 24 hrs by trypan blue assay. Format: functional, cell-based. The conditions noted are these: HL-60, 24 h.
Assay [8] deals with HL-60. In words: Cytotoxicity against human HL60 cells treated under dark condition after 72 hrs by trypan blue assay. In kind it is functional, cell-based. The following applies: HL-60, 72 h.
Assay [9] relates to Nucleic Acid. The experiment in a line: Binding affinity to Salmon testes DNA assessed as drug-DNA complex formation at drug/DNA ratio 0.02 to 0.08 by linear flow dichroism method. Format: nucleic-acid assay. The conditions noted are these: Salmonidae.
In assay [10] the test system is Nucleic Acid. The experiment in a line: Induction of Escherichia coli supercoiled pBR322 DNA cleavage at 5 uM after 30 mins by gel electrophoresis. In kind it is nucleic-acid assay.
For assay [11], the system named is Nucleic Acid. In words: Induction of Escherichia coli supercoiled pBR322 DNA cleavage at 50 uM after 30 mins by gel electrophoresis. Format: nucleic-acid assay.
In assay [12] the test system is Nucleic Acid. The experiment in a line: Induction of Escherichia coli supercoiled pBR322 DNA cleavage at up to 200 uM after 30 mins by gel electrophoresis. In kind it is nucleic-acid assay.

Our source for the Activity and IC50 values is ChEMBL document CHEMBL1212836, “Pyridazinopsoralens of wide chemotherapeutic interest” (Bioorg Med Chem, 2010).

The source made the active and inactive calls. No cut-off for these calls is given here.

Chain of DNA topoisomerase 2-alpha (Homo sapiens) (P11388 whole entry): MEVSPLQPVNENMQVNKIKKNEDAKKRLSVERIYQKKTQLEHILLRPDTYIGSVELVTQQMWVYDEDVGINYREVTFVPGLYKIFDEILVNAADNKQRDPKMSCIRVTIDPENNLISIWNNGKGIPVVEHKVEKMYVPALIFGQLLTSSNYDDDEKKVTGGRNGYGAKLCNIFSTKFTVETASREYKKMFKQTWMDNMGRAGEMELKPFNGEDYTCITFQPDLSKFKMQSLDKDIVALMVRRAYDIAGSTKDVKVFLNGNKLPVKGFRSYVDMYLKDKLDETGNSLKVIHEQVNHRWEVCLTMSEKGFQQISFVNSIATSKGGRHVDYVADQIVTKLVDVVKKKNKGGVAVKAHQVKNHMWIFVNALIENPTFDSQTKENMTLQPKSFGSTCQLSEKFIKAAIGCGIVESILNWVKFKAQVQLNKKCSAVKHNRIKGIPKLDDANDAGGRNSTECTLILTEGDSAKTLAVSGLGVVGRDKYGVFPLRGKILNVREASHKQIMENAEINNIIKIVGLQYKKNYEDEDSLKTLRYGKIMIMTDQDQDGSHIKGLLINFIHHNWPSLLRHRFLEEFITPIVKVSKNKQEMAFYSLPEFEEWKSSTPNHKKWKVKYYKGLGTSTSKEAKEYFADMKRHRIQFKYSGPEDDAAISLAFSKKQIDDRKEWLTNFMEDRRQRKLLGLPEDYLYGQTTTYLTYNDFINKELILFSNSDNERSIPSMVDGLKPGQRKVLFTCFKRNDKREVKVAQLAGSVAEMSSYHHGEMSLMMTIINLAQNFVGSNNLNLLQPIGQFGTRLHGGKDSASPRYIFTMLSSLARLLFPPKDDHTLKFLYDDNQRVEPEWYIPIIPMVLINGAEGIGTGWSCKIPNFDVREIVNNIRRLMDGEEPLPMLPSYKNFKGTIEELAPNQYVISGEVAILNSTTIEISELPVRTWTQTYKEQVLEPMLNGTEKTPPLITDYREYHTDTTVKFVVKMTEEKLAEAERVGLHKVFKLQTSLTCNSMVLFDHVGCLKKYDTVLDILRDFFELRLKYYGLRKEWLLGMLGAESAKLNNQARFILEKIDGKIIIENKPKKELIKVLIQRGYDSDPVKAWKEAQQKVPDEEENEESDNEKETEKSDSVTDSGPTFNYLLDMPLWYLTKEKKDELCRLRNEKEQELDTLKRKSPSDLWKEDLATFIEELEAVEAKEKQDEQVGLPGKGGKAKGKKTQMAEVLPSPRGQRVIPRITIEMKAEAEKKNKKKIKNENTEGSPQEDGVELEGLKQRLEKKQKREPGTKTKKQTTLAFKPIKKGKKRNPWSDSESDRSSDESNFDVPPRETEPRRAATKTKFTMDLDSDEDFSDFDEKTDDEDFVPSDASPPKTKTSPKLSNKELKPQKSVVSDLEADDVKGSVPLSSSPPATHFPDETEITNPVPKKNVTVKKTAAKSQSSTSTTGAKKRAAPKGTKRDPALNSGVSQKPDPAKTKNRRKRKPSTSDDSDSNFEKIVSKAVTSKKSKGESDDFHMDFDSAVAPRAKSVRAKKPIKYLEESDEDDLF

With `CCN(CC)CCCNC(=O)c1nnc(C(=O)NCCCN(CC)CC)c2c1oc1c(C)c3oc(=O)cc(C)c3cc12`, in [1], the Activity entry is “Dose-dependent effect”. Further, the outcome in assay [2], in [9] and in assay [10] was Active. In addition, the outcome in assay [3] was inactive. Further, the IC50 in [4] worked out at 3.5 µM; in assay [5], 14.7 µM; in [6], 0.8 µM; in assay [7], 0.9 µM; in assay [8] it was 0.37 µM.

Turning to `CCN(CC)CCCNC(=O)c1nncc2oc3c(C)c4oc(=O)cc(C)c4cc3c12`, the Activity result in assay [1] is “Dose-dependent effect”. Also, the IC50 turned out to be 7.4 µM in [4]; 11.5 µM in assay [5]; 2.2 µM in [6]; 2.1 µM in assay [7]; 0.9 µM in assay [8]. The outcome in [9] and in assay [11] was Active.

For the molecule `Cc1cc(=O)oc2c(C)c3oc4c(C(=O)NCCCN(C)C)nnc(C(=O)NCCCN(C)C)c4c3cc12`, the IC50 in assay [4] worked out at 3.7 µM; in assay [5], 11.5 µM; in assay [6] it was 2.6 µM; in assay [7] it was 3.8 µM; in [8] it was 0.61 µM. In addition, the result in assay [9] was Active.

In the case of `Cc1cc(=O)oc2c(C)c3oc4cnncc4c3cc12`, in assay [1], the Activity result was “Dose-dependent effect”. In addition, the IC50 in assay [4] worked out at 3.8 µM; in assay [5] it was 8.5 µM; in assay [6], 4.1 µM; in [7], 3.9 µM; in assay [8], 2.6 µM. The result in [9] was Active. Also, the result in assay [12] was inactive.

Consider `COc1cc(NS(C)(=O)=O)ccc1Nc1c2ccccc2nc2ccccc12`, for which, in assay [2], the result was Active.

Regarding `CCN(CC)CCNC(=O)c1nnc(C(=O)NCCN(CC)CC)c2c1oc1c(C)c3oc(=O)cc(C)c3cc12`, the 50% inhibitory concentration (IC50) in assay [4] came out at 4.4 µM; in assay [5], 17.2 µM; in [6] it was 3.5 µM; in assay [7], 1.2 µM; in assay [8] it was 0.57 µM. In [9], the result was Active.

Take `Cc1cc(=O)oc2c(C)c3oc4c(C(=O)NCCN(C)C)nnc(C(=O)NCCN(C)C)c4c3cc12`: the concentration for half-maximal inhibition (IC50) was found to be 2.4 µM in assay [4]; 11.9 µM in [5]; 1.3 µM in assay [6]; 0.9 µM in assay [7]; 0.41 µM in assay [8]. Moreover, the result in assay [9] was Active.

Consider `COc1c2occc2cc2ccc(=O)oc12` [METHOXSALEN], for which the IC50 in assay [7] and in assay [8] was above 20 µM in each case.

As a reminder, the IC50 is the concentration that gives 50% inhibition.
